Results: patent publication US8791132B2, “Compounds and methods for treatment of hypertension” (Medivation Technologies, Inc., priority 2011, dated 2014)

Legend:
[1] = target: T1, human recombinant adrenergic α2B receptor (Homo sapiens, UniProt P18089); assay: Radioligand binding, adrenergic α2B ([3H]Rauwolscine); details: for inhibition at 0.03 µM: read-out: Percentage inhibition of ligand binding, Adrenergic α2B (0.03 μM), compound at 0.03 μM
T1 construct: expressed in transfected cells; host or cells: CHO-K1
T1 sequence (P18089 1-450): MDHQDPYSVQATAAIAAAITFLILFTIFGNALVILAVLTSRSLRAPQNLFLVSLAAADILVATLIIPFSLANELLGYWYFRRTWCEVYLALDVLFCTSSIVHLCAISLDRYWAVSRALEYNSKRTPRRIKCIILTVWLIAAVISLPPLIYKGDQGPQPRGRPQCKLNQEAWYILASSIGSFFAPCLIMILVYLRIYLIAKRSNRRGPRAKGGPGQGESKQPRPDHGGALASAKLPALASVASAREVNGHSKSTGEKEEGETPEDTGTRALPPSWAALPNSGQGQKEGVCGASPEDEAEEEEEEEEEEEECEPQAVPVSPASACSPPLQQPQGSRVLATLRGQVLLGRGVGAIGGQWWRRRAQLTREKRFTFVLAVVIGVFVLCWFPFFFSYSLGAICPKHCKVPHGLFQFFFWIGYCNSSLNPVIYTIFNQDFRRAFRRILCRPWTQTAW
Outline: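 Values are percent inhibition of specific radioligand binding. The receptor, expressed in CHO-K1 cells, was exposed to 2.5 nM [3H]Rauwolscine at 25° C for 60 min, with 10 μM Prazosin marking non-specific binding.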

[2] = target: T2, human recombinant adrenergic α2A receptor (Homo sapiens, UniProt P08913); assay: Radioligand binding, adrenergic α2A ([3H]MK-912); details: read-out: Percentage inhibition of ligand binding, Adrenergic α2A (0.1 μM), compound at 0.1 μM; [3H]MK-912; repeat datapoints each shown
T2 construct: expressed in transfected cells; host or cells: insect Sf9 cells
T2 sequence (P08913 1-465): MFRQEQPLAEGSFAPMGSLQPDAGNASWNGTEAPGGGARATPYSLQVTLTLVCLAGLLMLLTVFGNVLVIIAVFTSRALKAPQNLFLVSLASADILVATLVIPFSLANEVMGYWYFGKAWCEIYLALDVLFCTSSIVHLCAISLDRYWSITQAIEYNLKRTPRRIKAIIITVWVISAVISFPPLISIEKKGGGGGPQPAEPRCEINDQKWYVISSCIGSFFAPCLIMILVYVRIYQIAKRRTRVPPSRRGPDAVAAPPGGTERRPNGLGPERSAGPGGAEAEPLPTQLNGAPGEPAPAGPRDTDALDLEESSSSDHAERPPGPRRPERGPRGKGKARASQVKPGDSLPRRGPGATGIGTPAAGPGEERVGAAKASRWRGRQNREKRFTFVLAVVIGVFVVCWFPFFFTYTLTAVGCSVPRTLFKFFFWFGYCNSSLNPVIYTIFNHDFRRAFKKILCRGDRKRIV
Outline: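 Displacement of 1 nM [3H]MK-912 from receptor produced in insect Sf9 cells was measured after 60 min at 25 °C. Readout: percent inhibition of specific binding.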

[3] = target: T3, rat adrenergic α1B receptor (Rattus norvegicus, UniProt P15823); assay: Radioligand binding, adrenergic α1B ([3H]Prazosin); details: [3H]Prazosin, repeat datapoints each shown; for inhibition at 0.1 µM: read-out: Percentage inhibition of ligand binding, Adrenergic α1B (0.1 μM), compound at 0.1 μM
T3 construct: rat adrenergic α1B receptor obtained from Wistar Rat liver; from tissue; host or cells: Wistar rat liver
T3 sequence (P15823 1-515): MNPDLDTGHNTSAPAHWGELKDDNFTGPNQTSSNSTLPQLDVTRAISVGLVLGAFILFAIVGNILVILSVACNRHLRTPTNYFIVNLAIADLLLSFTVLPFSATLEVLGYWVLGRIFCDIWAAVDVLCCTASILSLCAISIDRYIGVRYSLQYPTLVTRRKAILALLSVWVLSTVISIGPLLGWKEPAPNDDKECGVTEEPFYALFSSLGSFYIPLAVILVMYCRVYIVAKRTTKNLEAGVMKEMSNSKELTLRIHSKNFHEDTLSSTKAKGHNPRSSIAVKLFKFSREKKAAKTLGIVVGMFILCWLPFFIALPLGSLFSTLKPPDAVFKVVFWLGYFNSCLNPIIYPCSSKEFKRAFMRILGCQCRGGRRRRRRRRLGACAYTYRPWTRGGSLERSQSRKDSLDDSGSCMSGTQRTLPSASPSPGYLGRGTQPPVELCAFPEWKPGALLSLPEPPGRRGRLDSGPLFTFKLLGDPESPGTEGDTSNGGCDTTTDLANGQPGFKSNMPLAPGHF
Outline: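 Specific binding, taken as total minus that remaining with 10 μM phentolamine, is measured after filtration and counting. Rat liver receptor preparation and 0.25 nM [3H]prazosin are incubated with compound in 50 mM Tris-HCl (pH 7.4, 0.5 mM EDTA) at 25° C for 60 min. Activity is reported as percent inhibition.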

[4] = [3H]Rauwolscine, repeat datapoints each shown

Structure (SMILES) | inhibition at 0.03 µM [1, 4] | inhibition at 0.1 µM [2] | inhibition at 0.1 µM [3] | Percentage inhibition of ligand binding, Adrenergic α2B (0.03 μM) ([1]; compound at 0.03 μM, [3H]Rauwolscine, repeat datapoints each shown, 0.03 µM) | Ki ([1]; read-out: Ki α2B) | inhibition at 0.1 µM ([1]; read-out: Percentage inhibition of ligand binding, Adrenergic α2B (0.1 μM), compound at 0.1 μM, [3H]Rauwolscine, repeat datapoints each shown) | Percentage inhibition of ligand binding, Adrenergic α1B (0.1 μM) ([3]; compound at 0.1 μM, 0.1 µM) | inhibition at 0.03 µM ([3]; read-out: Percentage inhibition of ligand binding, Adrenergic α1B (0.03 μM), compound at 0.03 μM)
Cc1ccc2c(c1)c1c(n2CC(CC(=O)N(C)C)c2ccncc2)CCN(C)C1 (centres unmarked) [II-230, 4-(2,8-dimethyl-1,2,3,4-tetrahydro-pyrido[4,3-b]indol-5-yl)-N,N-dimethyl-3-pyridin-4-yl-butyramide] | 22% | 1% | -2% | – | – | – | – | –
Cc1ccc2c(c1)c1c(n2CC(CCN)c2ccncc2)CCN(C)C1 (centres unmarked) [II-231, 4-(2,8-dimethyl-1,2,3,4-tetrahydro-pyrido[4,3-b]indol-5-yl)-3-pyridin-4-yl-butylamine] | -2% | 9% | 11% | – | – | – | – | –
Cc1ccc2c(c1)c1c(n2CC(CCN(C)C)c2ccncc2)CCN(C)C1 (centres unmarked) [II-232, [4-(2,8-dimethyl-1,2,3,4-tetrahydro-pyrido[4,3-b]indol-5-yl)-3-pyridin-4-yl-butyl]-dimethyl-amine] | 28% | 3% | 3% | – | – | – | – | –
Cc1cnc2c(c1)c1c(n2CCc2ccncc2)CCN(C)C1 [II-240] | 53% | 7% | 57% | – | – | – | – | –
CN1CCc2c(c3ncccc3n2CC(O)c2ccncc2)C1 (centres unmarked) [II-241] | -1% | -1% | 5% | – | – | – | – | –
CN1CCc2c(c3ccncc3n2CC(O)c2ccncc2)C1 (centres unmarked) [II-242] | 3% | 2% | 4% | – | – | – | – | –
Cc1cnc2c(c1)c1c(n2CCc2ccc(C(N)=O)nc2)CCN2CCCC12 (centres unmarked) [II-243, 5-[2-(9-methyl-1,2,3,4,5,10c-hexahydro-3a,6,7-triaza-cyclopenta[c]fluoren-6-yl)-ethyl]-pyridine-2-carboxylic acid amide] | 58% | 19% | 91% | 61% | 9.44 nM | 82% | 93% | 79%
Cc1cnc2c(c1)c1c(n2CCc2cnccn2)CCN2CCCC12 (centres unmarked) [II-245] | 44% | 7% | 27% | – | – | – | – | –
Cc1ccc(CCn2c3c(c4c(Cl)ccc(Cl)c42)CCN(C)CC3)cn1 [II-246, 7,10-dichloro-1,2,3,4,5,6-hexahydro-3-methyl-6-(2-(6-methylpyridin-3-yl)ethyl)azepino [4,5-b]indole] | 5% | 47% | -2% | – | – | – | – | –
Cc1ccc(CCn2c3c(c4c(Br)ccc(Cl)c42)CN(C)CC3)cn1 [II-247, 9-bromo-6-chloro-2,3,4,5-tetrahydro-2-methyl-5-(2-(6-methylpyridin-3-yl)ethyl)-1H-pyrido[4,3-b]indole] | 19% | 83% | 3% | – | – | – | – | –
Cc1ccc(CCn2c3c(c4c(Cl)ccc(F)c42)CN(C)CC3)cn1 [II-248, 9-chloro-6-fluoro-2,3,4,5-tetrahydro-2-methyl-5-(2-(6-methylpyridin-3-yl)ethyl)-1H-pyrido[4,3-b]indole] | 5% | 88% | 4% | – | – | – | – | –
Cc1ccc(CCn2c3c(c4c(Cl)ccc(Cl)c42)CCN(C)C3)cn1 [II-249, 5,8-dichloro-2,3,4,9-tetrahydro-2-methyl-9-(2-(6-methylpyridin-3-yl)ethyl)-1H-pyrido[3,4-b]indole] | 4% | 74% | 6% | – | – | – | – | –
Cc1ccc(CCn2c3c(c4c(F)ccc(F)c42)CN(C)CC3)cn1 [II-250] | 6% | 57% | -5% | – | – | – | – | –
Cc1ccc(CCn2c3c(c4c(Br)ccc(Br)c42)CN(C)CC3)cn1 [II-251] | -4% | 81% | -7% | – | – | – | – | –
Cc1ccc(CCn2c3c(c4c(Cl)ccc(Br)c42)CN(C)CC3)cn1 [II-252] | 1% | 91% | -1% | – | – | – | – | –
Cc1ccc(CCn2c3c(c4c(F)ccc(Cl)c42)CN(C)CC3)cn1 [II-253] | 16% | 54% | 9% | – | – | – | – | –
Cc1ccc2c(c1)c1c(n2CC(N=[N+]=[N-])c2cnccn2)CCN2CCCC12 (centres unmarked) [II-261, 6-(2-azido-2-pyrazin-2-yl-ethyl)-9-methyl-2,3,4,5,6,10c-hexahydro-1H-3a,6-diaza-cyclopenta[c]fluorene] | 103% | 70% | 71% | – | – | – | – | –
Cc1ccc2c(c1)c1c(n2CC(C(=O)O)c2ccncc2)CCN(C)C1 (centres unmarked) [II-262, 3-(2,8-dimethyl-3,4-dihydro-1H-pyrido[4,3-b]indol-5(2H)-yl)-2-(pyridin-4-yl)propanoic acid] | 11% | 10% | 3% | – | – | – | – | –
Cc1ccc2c(c1)c1c(n2CC(C(N)=O)c2ccncc2)CCN(C)C1 (centres unmarked) [II-263] | 10% | 10% | 2% | – | – | – | – | –
Cc1cnc2c(c1)c1c(n2CC(N=[N+]=[N-])c2ccncc2)CCN(C)C1 (centres unmarked) [V-2, 9-(2-azido-2-(pyridin-4-yl)ethyl)-3,6-dimethyl-6,7,8,9-tetrahydro-5H-pyrrolo[2,3-b:4,5-c′]dipyridine] | 61% | 2% | 49% | – | – | – | – | –
Cc1ccc2c(c1)c1c(n2CC(C)(N=[N+]=[N-])c2cccnc2)CCN(C)C1 (centres unmarked) [V-3, 5-(2-azido-2-(pyridin-3-yl)propyl)-2,8-dimethyl-2,3,4,5-tetrahydro-1H-pyrido[4,3-b]indole] | 71% | 40% | 22% | – | – | – | – | –
Cc1ccc2c(c1)c1c(n2CC(OCC(=O)O)c2ccncc2)CCN2CCCC12 (centres unmarked) [V-15, 2-(2-(10-methyl-2,3,5,6-tetrahydro-1H-indolizino[7,8-b]indol-7(11cH)-yl)-1-(pyridin-4-yl)ethoxy)acetic acid] | 20% | 7% | 4% | – | – | – | – | –
Cc1ccc2c(c1)c1c(n2CC(N=[N+]=[N-])c2ccc(C(N)=O)nc2)CCN(C)C1 (centres unmarked) [V-22, 5-[1-azido-2-(2,8-dimethyl-1,2,3,4-tetrahydro-pyrido[4,3-b]indol-5-yl)-ethyl]-pyridine-2-carboxylic acid amide] | 90% | 18% | 28% | – | – | – | – | –
